This test concerns arachidonic acid-induced ear edema. The experiment in a line: Arachidonic acid-induced mouse ear edema test, single topical application. Details: Mean ear edema: unit not given here. It counts as in vivo, Balb/c mice. Conditions: indomethacin 5%, ivermectin 1%, diclofenac 1%; for Mean ear edema: single topical application on right ear with AA 4%; for Inhibition vs AA 4%: single topical application with AA 4%. The procedure:
Example 1: Evaluation of the Anti-Inflammatory Activity of Ivermectin and Diclofenac after a Single Topical Application in the Arachidonic Acid-Induced Mouse Ear Edema Test on Balb/c Mice
Arachidonic acid is dissolved in a mixture of THF/Methanol at 4%.
Tested compounds were dissolved in arachidonic acid solution, at final concentration.
20 μl of the tested compound is dissolved in arachidonic acid solution and applied on the internal side of the right ear.
The ear thickness is measured at T=0 h, T+1 h, T+2 h, T+4 h.
THF/Methanol is used as vehicle control.
Indomethacin 5% is used as positive control and arachidonic acid at 4% in THF/Methanol is used as inductor of inflammation.

Where [1] appears, read: ear thickness measurement after 1 h.
[2] abbreviates: ear thickness measurement after 2 h.
Where [3] appears, read: ear thickness measurement after 4 h.

As for `CCCCC/C=C\C/C=C\C/C=C\C/C=C\CCCC(=O)O` [Arachidonic acid (AA), Arachidonic acid], the Mean ear edema is, setting by setting: (1 h measurement) 18.8; (2 h measurement) 16.2; (4 h measurement) 13.4.

Take `COc1ccc2c(c1)c(CC(=O)O)c(C)n2C(=O)c1ccc(Cl)cc1` [indomethacin]: the Mean ear edema turned out to be 1 (1 h measurement), 1 (2 h measurement) and 1 (4 h measurement). Moreover, the “Inhibition vs AA 4%” value worked out at 94.7 (1 h measurement), 93.8 (2 h measurement) and 92.5 (4 h measurement). For the same molecule, the “inhibition of the ear edema caused by arachidonic acid” value (“inhibition of the ear edema caused” for short) by setting is: under setting [1], 95%; under setting [2], 94%; under setting [3], 92.5%.

For the molecule ivermectin, the Mean ear edema is, setting by setting: (1 h measurement) 8.2; (2 h measurement) 8.6; (4 h measurement) 6.2. For the same molecule, the “Inhibition vs AA 4%” value runs as follows: (1 h measurement) 56.4; (2 h measurement) 46.9; (4 h measurement) 53.7. Also, the “inhibition of the ear edema caused” value reads like this: under setting [1], 56%; under setting [2], 47%; under setting [3], 54%.

On to `O=C(O)Cc1ccccc1Nc1c(Cl)cccc1Cl` [diclofenac, 2-(2-(2,6-dichlorophenylamino)phenyl)acetic acid], for which the Mean ear edema amounted to 6 (1 h measurement), 4 (2 h measurement) and 3 (4 h measurement). Moreover, the “Inhibition vs AA 4%” value runs as follows: (1 h measurement) 68.1; (2 h measurement) 75.3; (4 h measurement) 77.6. The “inhibition of the ear edema caused” value worked out at 68% under setting [1], 75% under setting [2] and 78% under setting [3].

These data come from patent US10874682B2, “Compositions and the use thereof for treating or preventing rosacea” (NESTLÉ SKIN HEALTH SA, priority 2016, dated 2020).
